Like-named read-outs stand apart in the source and are kept apart here. Where a SMILES comes first, the peptide text is derived from it. The star is where a group is joined. Boc = CC(C)(C)OC(=O)*
Legend:
[1] = tested on: PLK/DLUC_1C9 tachyzoites in Vero cells; experiment: Primary screening: T. gondii growth assay, Renilla luciferase; type: cell-based, Toxoplasma gondii; details: 48 h; for inhibition at 10 µM: Toxoplasma gondii, read-out: Parasite Inhibition (%)
Description: In the primary screening, purified PLK/DLULC_1C9 tachyzoites were incubated with Vero cells at a multiplicity of infection (MOI) of 0.5. After a 2-h incubation, the infected host cells were trypsinized to obtain a cell suspension and then these suspended infected cells were inoculated into 96-well optical bottom plates containing the compound library. Each well was inoculated with 2500 cells in 25 μL of culture medium. […] Following cell inoculation, each well therefore contained 0.5% DMSO and 10 μM compound. After 48 h of culture, Renilla luciferase activity was measured by using Renilla-Glo (Promega, WI, USA) following the manufacturer’s instructions. […] The Z’-value for each plate was calculated from the Renilla luciferase activity in the negative and positive control wells.

[2] = tested on: RH-2F tachyzoites (type I strain) in HFF cells; experiment: Confirmatory screening: RH-2F β-galactosidase growth assay in HFF cells; type: cell-based, Toxoplasma gondii; details: 48 h, 48 h; for inhibition at 2.5 µM / inhibition at 25 µM: Toxoplasma gondii, read-out: Parasite inhibition (%)
Description: In the confirmatory screening, we utilize an RH strain β-galactosidase reporter parasite termed RH-2F (a type I strain). Briefly, RH-2F parasites were purified from freshly lysed infected host cells and used to infect confluent HFF cells cultured in 96-well plates. Five hundred parasites were added to each well, along with each test compound and 50 μL of culture medium. Plates were then incubated for 10 min at room temperature followed by an incubation at 37°C for 48 h in a CO2 incubator.
To measure the effects of tanshinone IIA and hydroxyzine on intracellular parasite growth, parasites were allowed to invade for 2 h, uninvaded parasites were washed away, and medium with compounds was added. After 48 h, the plates were frozen at -80°C. Plates were then thawed just prior to the measurement of beta-galactosidase activity. Beta-Glo (Promega) was used to measure β-galactosidase activity following the manufacturer’s instructions.

[3] = Host cell cytotoxicity assay (Cell-Titer Glo), Vero cells; type: cell-based; details: African green monkey
Description: (§1) Host cells were treated with compounds at the same concentration used for screening (i.e., 0.5% DMSO and 10 μM compound). Vero cells and HFF cells were both used as host cells because both cell types were used for the parasite screening. After incubation for 48 h in DMEM supplemented with 5% FBS, L-glutamine, penicillin, and streptomycin, cell viabilities were measured by using a Cell-Titer Glo kit (Promega) following the manufacturer’s instructions. Control wells were treated with DMSO alone in culture medium to calculate the 100% viability for each cell type.

[4] = Host cell cytotoxicity assay (Cell-Titer Glo), HFF cells; type: cell-based, human; details: human
Description: as §1, with “Vero” for “Host cells were treated with compounds at the same concentration used for screening (i.e., 0.5% DMSO and 10 μM compound). Vero”

Vero cells = experiment: Host cell cytotoxicity assay (Cell-Titer Glo), Vero cells; type: cell-based
Description: as §1

HFF cells = experiment: Host cell cytotoxicity assay (Cell-Titer Glo), HFF cells; type: cell-based, human
Description: as §1, with “Vero” for “Host cells were treated with compounds at the same concentration used for screening (i.e., 0.5% DMSO and 10 μM compound). Vero”

[5] = 10 μM, PLK/DLUC_1C9 in Vero cells, DMSO = 0%, 10 μM pyrimethamine = 100%
[6] = HFF, 2.5 μM, RH-2F in HFF, compared with 10 μM pyrimethamine
[7] = 25 μM, RH-2F in HFF, compared with 10 μM pyrimethamine
[8] = 10 μM, 48 h, Vero cells, DMSO = 100%, read-out: Host Viability (%)
[9] = 2.5 μM, RH-2F in HFF, compared with 10 μM pyrimethamine
[10] = 10 μM, 48 h, Vero cells, DMSO = 100%
[11] = 25 μM, 48 h, HFF cells, compared with DMSO
[12] = HFF, 25 μM, RH-2F in HFF, compared with 10 μM pyrimethamine

With `OCCN1CCN(CCCN2c3ccccc3Sc3ccc(Cl)cc32)CC1` [Perphenazine] the inhibition at 10 µM [1, 5] was 104%, the inhibition at 2.5 µM [2, 6] was -6.8% and the inhibition at 25 µM [2, 7] was 112%. It also gave a viability at 48 h, 10 µM [3] of 84%, a viability at 48 h, 2.5 µM ([4]; Host cell viability (%)) of 95% and a viability at 48 h, 25 µM ([4]; Host cell viability (%)) of 65%.

Compound `COc1ccc(S(=O)(=O)N(CC(=O)NO)CC(C)C)cc1` [N-Hydroxy-N2-isobutyl-N2-[(4-methoxyphenyl)sulfonyl]glycinamide] has an inhibition at 10 µM ([1]; Vero) of 101% and a viability at 10 µM [3, 8] of 98%.

In the case of `CCCCC/C=C\C/C=C\C/C=C\C/C=C\CCCC(=O)Nc1ccc(O)cc1` [AM404], the “Parasite inhibition (%)” value [1, 5] is reported as 103%, the “Parasite inhibition (%)” value [2, 9] is reported as -11% and the “Parasite inhibition (%)” value [2, 7] is reported as 59%. For the same compound, the “Host Viability (%)” value (Vero cells; [10]) was 100%, the “Host cell viability (%)” value (HFF cells; 2.5 μM, 48 h, HFF cells) was 93% and the “Host cell viability (%)” value (HFF cells; [11]) was 86%.

With `COc1ccc(Cl)cc1NC(=O)Nc1cc(C)nc2ccccc12` [TCMDC-125497] the “Parasite inhibition (%)” value [1, 5] was 106%, the “Parasite inhibition (%)” value [2, 9] was 20% and the “Parasite inhibition (%)” value [2, 7] was 113%. For the same compound, the “Host Viability (%)” value (Vero cells; 10 µM) was 82%, the “Host cell viability (%)” value (HFF cells; 2.5 µM) was 99% and the “Host cell viability (%)” value (HFF cells; 25 µM) was 78%.

Compound `O=C1[C@H]2CCCC[C@H]2C(=O)N1CCCCN1CCN(c2nsc3ccccc23)CC1` [Perospirone] has an inhibition at 10 µM [1, 5] of 100%, an inhibition at 2.5 µM [2, 6] of 4.5% and an inhibition at 25 µM [2, 12] of 59%. It also gave a viability at 48 h, 10 µM [3] of 96%, a viability at 48 h, 2.5 µM ([4]; Host cell viability (%)) of 102% and a viability at 48 h, 25 µM ([4]; Host cell viability (%)) of 101%.

In the case of `Clc1ccccc1C(c1ccccc1)(c1ccccc1)n1ccnc1` [Clotrimazol], the inhibition at 10 µM [1, 5] is reported as 99% and the viability at 48 h, 10 µM [3] is reported as 94%.

`CC(C)[C@H](NC(=O)CNC(=O)OC(C)(C)C)C(=O)N[C@H](C=O)C(C)C` [N-{[(2-Methyl-2-propanyl)oxy]carbonyl}glycyl-N-[(2S)-3-methyl-1-oxo-2-butanyl]-L-valinamide] (Boc-Gly-Val-Val-aldehyde) gave an inhibition at 10 µM [1, 5] of 105% and a viability at 48 h, 10 µM [3] of 106%.

For `O=C(/C=C/c1ccc(O)c(O)c1)c1ccc(O)cc1O` [Butein], the inhibition at 10 µM [1, 5] was 96%, the inhibition at 2.5 µM [2, 6] was -11% and the inhibition at 25 µM [2, 12] was 110%. The viability at 48 h, 10 µM [3] was 93%, the viability at 48 h, 2.5 µM ([4]; Host cell viability (%)) was 102% and the viability at 48 h, 25 µM ([4]; Host cell viability (%)) was 91%.

For `CC(C)C[C@H]1C(=O)N2CCC[C@H]2[C@]2(O)O[C@](NC(=O)[C@@H]3C=C4c5cccc6[nH]c(Br)c(c56)C[C@H]4N(C)C3)(C(C)C)C(=O)N12` [Bromocriptine], the inhibition at 10 µM [1, 5] was 105%, the inhibition at 2.5 µM [2, 9] was -8% and the inhibition at 25 µM [2, 7] was 110%. For the same compound, the viability at 48 h, 10 µM [3, 8] was 85%, the viability at 48 h, 2.5 µM ([4]; HFF cells, 2.5 μM, 48 h, HFF cells, read-out: Host cell viability (%)) was 98% and the viability at 48 h, 25 µM ([4]; HFF cells, 25 μM, 48 h, HFF cells, compared with DMSO, read-out: Host cell viability (%)) was 93%.

With `Cc1ccc(C(=O)c2cc(/C=C/C(=O)NO)n(C)c2)cc1` [MC-1293] the “Parasite inhibition (%)” value [1, 5] was 103%, the “Parasite inhibition (%)” value [2, 9] was 12% and the “Parasite inhibition (%)” value [2, 7] was 95%. For the same compound, the “Host Viability (%)” value (Vero cells; [10]) was 85%, the “Host cell viability (%)” value (HFF cells; 2.5 μM, 48 h, HFF cells) was 98% and the “Host cell viability (%)” value (HFF cells; [11]) was 95%.

`OCCN1CCN(CCCN2c3ccccc3Sc3ccc(C(F)(F)F)cc32)CC1` [FLUPHENAZINE] gave a viability at 48 h, 10 µM [3] of 83%, a viability at 48 h, 2.5 µM ([4]; Host cell viability (%)) of 104% and a viability at 48 h, 25 µM ([4]; Host cell viability (%)) of 84%.

Compound `OC(c1cc(C(F)(F)F)nc2c(C(F)(F)F)cccc12)C1CCCCN1` (centres unmarked) [Mefloquine] has an inhibition at 10 µM [1, 5] of 101%, an inhibition at 2.5 µM [2, 9] of 6.5% and an inhibition at 25 µM [2, 7] of 113%. The viability at 48 h, 10 µM [3] was 87%, the viability at 48 h, 2.5 µM ([4]; Host cell viability (%)) was 94% and the viability at 48 h, 25 µM ([4]; Host cell viability (%)) was 48%.

Work on `CCN(CC)CCNc1ccc(CO)c2sc3ccccc3c(=O)c12` [Hycanthone] yielded an inhibition at 10 µM [1, 5] of 97% and a viability at 48 h, 10 µM [3] of 82%.

`Nc1ccccc1NC(=O)c1ccc(CNC(=O)OCc2cccnc2)cc1` [Entinostat] showed an inhibition at 10 µM [1, 5] of 91%, an inhibition at 2.5 µM [2, 6] of -20% and an inhibition at 25 µM [2, 12] of 60%. For the same compound, the viability at 48 h, 10 µM [3] was 83%, the viability at 48 h, 2.5 µM ([4]; Host cell viability (%)) was 92% and the viability at 48 h, 25 µM ([4]; Host cell viability (%)) was 91%.

In the case of `COC(=O)C1=C(C)NC(C)=C(C(=O)OCCCN2CCC(c3ccccc3)(c3ccccc3)CC2)[C@H]1c1cccc([N+](=O)[O-])c1` [Niguldipine], the inhibition at 10 µM ([1]; Vero) is reported as 103%, the inhibition at 2.5 µM ([2]; HFF) is reported as -19% and the inhibition at 25 µM ([2]; HFF) is reported as 96%. It also gave a viability at 10 µM [3] of 77%, a viability at 2.5 µM [4] of 99% and a viability at 25 µM [4] of 84%.

`COc1ccc(C(=O)/C(Cc2cc(OC)c(OC)c(OC)c2)=C(\C(=O)O)c2ccc3c(c2)OCO3)cc1` [(2Z)-2-(1,3-Benzodioxol-5-yl)-4-(4-methoxyphenyl)-4-oxo-3-(3,4,5-trimethoxybenzyl)-2-butenoic acid] showed an inhibition at 10 µM [1, 5] of 93% and a viability at 48 h, 10 µM [3] of 85%.

For `CC(C)(C)c1ccc(C(O)CCCN2CCC(C(O)(c3ccccc3)c3ccccc3)CC2)cc1` (racemic) [(±)-Terfenadine], the “Parasite inhibition (%)” value [1, 5] was 104%, the “Parasite inhibition (%)” value [2, 9] was -12% and the “Parasite inhibition (%)” value [2, 7] was 96%. The “Host Viability (%)” value (Vero cells; 10 µM) was 85%, the “Host cell viability (%)” value (HFF cells; 2.5 µM) was 96% and the “Host cell viability (%)” value (HFF cells; 25 µM) was 0.1%.

For `CC[N+](C)(CC)CCC[n+]1c(-c2ccccc2)c2cc(N)ccc2c2ccc(N)cc21.[I-].[I-]` [Propidium Iodide], the “Parasite inhibition (%)” value [1, 5] was 91% and the “Host Viability (%)” value (Vero cells; 10 µM) was 91%.

For PENITREM A, the “Parasite inhibition (%)” value [1, 5] was 105%, the “Parasite inhibition (%)” value [2, 9] was 6.0% and the “Parasite inhibition (%)” value [2, 7] was 110%.

`COc1ccc2[nH]c([S+]([O-])Cc3ncc(C)c(OC)c3C)nc2c1` (centres unmarked) [Omeprazole] gave an inhibition at 10 µM ([1]; Vero) of 92%, an inhibition at 2.5 µM ([2]; HFF) of 4.3% and an inhibition at 25 µM ([2]; HFF) of 44%. The viability at 48 h, 10 µM [3] was 97%, the viability at 48 h, 2.5 µM ([4]; Host cell viability (%)) was 100% and the viability at 48 h, 25 µM ([4]; Host cell viability (%)) was 100%.

Compound `O=c1[nH]c2ccccc2n1CCCN1CCC(n2c(=O)[nH]c3cc(Cl)ccc32)CC1` [Domperidone] has an inhibition at 10 µM ([1]; Vero) of 93%, an inhibition at 2.5 µM [2, 6] of -7.2% and an inhibition at 25 µM ([2]; HFF) of 77%. It also gave a viability at 48 h, 10 µM [3] of 94%, a viability at 48 h, 2.5 µM ([4]; Host cell viability (%)) of 94% and a viability at 48 h, 25 µM ([4]; Host cell viability (%)) of 83%.

`Clc1ccc(C(Cn2ccnc2)OCc2c(Cl)cccc2Cl)c(Cl)c1` (centres unmarked) [Isoconazole] gave an inhibition at 10 µM [1, 5] of 104% and a viability at 10 µM [3, 8] of 101%.
